From patent EP4523686A1, “A SIGMA-1 RECEPTOR POSITIVE MODULATOR FOR ITS USE IN THE PREVENTION AND THE TREATMENT OF A PATHOLOGY” (priority 2023, dated 2025)
Values joined by “and” are separate entries in the source; they are usually repeats but may differ in a detail not shown here. Equal entries are not always repeated.

What was measured:
[1] = test system: Dizocilpine-induced learning impairments in mice; experiment: Step-through passive avoidance, Dizocilpine-induced learning impairments; format: in vivo
Excerpt: The apparatus is a two-compartments (15 × 20 × 15 cm high) box with one illuminated with white polyvinylchloride walls and the other darkened with black polyvinylchloride walls and a grid floor. A guillotine door separates each compartment. A 60 W lamp positioned 40 cm above the apparatus lights up the white compartment during the experiment. Scrambled foot shocks (0.3 mA for 3 s) could be delivered to the grid floor using a shock generator scrambler (Lafayette Instruments, Lafayette, USA). The guillotine door was initially closed during the training session. Each mouse was placed into the white compartment. After 5 s, the door was raised. When the mouse entered the darkened compartment and placed all its paws on the grid floor, the door is closed and the foot shocks delivered for 3 s. The step-through latency (STL-Tg), that is, the latency spent to enter the darkened compartment, and the number of vocalizations were recorded. The retention test was carried out 24 h after training. Each mouse was placed again into the white compartment. After 5 s, the door was raised. The step-through latency (STL-R) was recorded up to 300 s (Meunier et al., 2006, 2013; Villard et al., 2009, 2011). An exclusion criteria was STL-Tg and STL-R < 10 s. Animals showing these readouts are excluded from the calculations. Attrition is routinely < 5% in this test.

[2] = test system: Aβ25-35-induced learning impairments in mice; experiment: Active avoidance in the rectangular water-maze, Aβ25-35 model of Alzheimer's disease; format: in vivo
Method: Amyloid-β[25-35] peptide (Aβ25-35) was from Eurogentec (Angers, France). It was solubilized in distilled water at 3 mg/ml and stored at -20°C until use. Before injection, the peptide was incubated at 37°C for 4 days, allowing oligomerization. Control injection was performed with vehicle solution (distilled water), and intracerebroventricularly (ICV) injections were done as described previously (Maurice et al., 1996, 2019).
Non-spatial long-term memory was also examined using the successive training, place-learning procedure in the rectangular water-maze (Maurice et al., 1995, 2018). The apparatus is a black Plexiglas rectangular pool (30 × 60 × 36 cm high), filled with water at a high of 25 cm. The water temperature was maintained at 23 ± 1°C. A transparent Plexiglas platform (5 × 8.5 × 0.5 cm) was fixed in the southeast corner of the pool, 1 cm below the water surface. On acquisition days 1 and 2, each mouse was placed at the middle of the west side of the pool, facing the wall, and the latency to find the platform was recorded up to 60 s. The mouse was allowed to remain on it for 20 s, and then removed from the pool into its home cage. […] Each animal was run in this manner for a total of 5 trials on day 1, and 3 trials on day 2. […] A short-term memory (STM) index was defined as the mean difference in swimming duration between trial n and trial n-1 for trials 2 to 5 and 7 to 8. The STM index was analysed vs. zero level (= no improvement). On day 4, 48 h after the last training session, animals were tested for retention. The platform was removed. Each mouse was again placed at the starting point and observed for 60 s. The latency to reach the original platform location and the time spent on the platform location was recorded.
SIG-1R acting drugs are potent neuroprotective drugs in several neurodegenerative disease indications. Moreover, Blarcamesine, the drug presently tested in a clinical phase 3 assay (NCT04314934) was identified in the pharmacological model of AD induced in mice by ICV administration of oligomerized Aβ25-35 peptide (Villard et al., 2011). […]

[3] = test system: panel of 47 receptors and ionophores; experiment: CEREP screen on a panel of 47 receptors and binding sites; settings: all targets except CB2 receptors, Kv channels, 5-HT3 and 5-HT1B receptors
Method: Table 1 represents pharmacological profiling of convolamine which was tested at […] and 1 µM in in vitro binding assays designed with appropriate reference compounds in duplicates at CEREP facility.

S2R = biological target: T1, S2R (Homo sapiens, UniProt Q5BJF2); experiment: In vitro binding to S2R ([3H]ditolyl-guanidine, Jurkat cell membranes, CEREP); settings: membranes from Jurkat human leukemic T cells, 25 nM radioligand; read-out: IC50 for [3H]DTG binding (S2R / SIG-2R affinity)
T1 construct: 25 nM of [^3H]ditolyl-guanidine in membranes preparations from Jurkat human leukemic T cells; host or cells: Jurkat human leukemic T cells (membrane preparation)
T1 sequence (Q5BJF2 whole entry): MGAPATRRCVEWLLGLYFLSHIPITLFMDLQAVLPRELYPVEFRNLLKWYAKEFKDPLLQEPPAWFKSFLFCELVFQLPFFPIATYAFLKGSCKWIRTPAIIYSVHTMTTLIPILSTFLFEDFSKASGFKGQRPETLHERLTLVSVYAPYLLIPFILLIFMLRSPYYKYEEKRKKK
Method: The assay was performed by CEREP (Celle l'Evescault, France) (study 100062023). SIG-1R binding was performed according to Ganapathy et al. (1999). Increasing drug concentrations (100 nM to 30 µM) were incubated with 15 nM of [^3H](+)-pentazocine in membranes preparations from Jurkat human leukemic T cells. Samples were incubated during 120 min at 37°C and nonspecific binding level was determined using 10 µM of haloperidol. S2R binding was performed according to Ganapathy et al. (1999). Increasing drug concentrations (100 nM to 30 µM) were incubated with 25 nM of [^3H]ditolyl-guanidine in membranes preparations from Jurkat human leukemic T cells. Samples were incubated during 60 min at room temperature and nonspecific binding level was determined using 10 µM of haloperidol. Assays were performed in duplicates and results were expressed as % of specific binding level.

[4] = Summary of the in vivo tests (active dose range); settings: dizocilpine-induced amnesia and Aβ25-35 tests
Excerpt: A characteristic of SIG-1R positive modulators, likely due to the chaperone nature of SIG-1R, is to behave in vivo as agonists (Vavers et al., 2019).

COc1ccc(C(=O)OC2CC3CCC(C2)N3C)cc1OC (stereo not drawn) [Convolamine, (8-methyl-8-azabicyclo[3.2.1]octan-3-yl) 3,4-dimethoxybenzoate]
convolamine effect on step-through latency under NE-100 co-treatment (in words) ([1]; Convolamine 1 mg/Kg IP with NE-100 1 mg/Kg): blocked | Dizocilpine-induced decrease of step-through latency (in words) ([1]; at 1 mg/kg IP): attenuated significantly | Dizocilpine-induced increase of escape latency (in words) ([1]; at 0.3-3 mg/kg IP): attenuated significantly | STM (short-term memory index) in Aβ25-35-treated mice (in words) ([2]; at 1 mg/kg): significantly increased | Aβ25-35-induced decrease in number of platform location crossings (in words) ([2]; at 1 mg/kg IP): significantly attenuated | Aβ25-35-induced increase in latency in the retention session (in words) ([2]; at 1 mg/kg IP): significantly attenuated | activity on the panel of 47 receptors and ionophores (in words) [3]: inactive | IC50 (S2R): 13 µM and ~13 µM | active dose [4]: 0.3 to 3 mg/kg
